According to ChEMBL document CHEMBL4330090, “The effect of replacing the ester bond with an amide bond and of overall stereochemistry on the activity of daptomycin” (2019):
Values after ≈ are worked out from the molar mass of the structure shown. Active and inactive are the calls of the source. No cut-off for these calls is given here.

Legend:
Lipid bilayer [1] = test: Binding affinity to DMPC/DMPG large unilamellar vesicles assessed as increase in intrinsic fluorescence in presence of >0.1 mM Ca2+ by fluorescence based assay
Bacillus subtilis [2] = test: Antibacterial activity against Bacillus subtilis 1046 in presence of 1.25 mM Ca2+; type: functional
Bacillus subtilis [3] = test: Antibacterial activity against Bacillus subtilis 1046 in presence of 5 mM Ca2+; type: functional
Lipid bilayer [4] = test: Binding affinity to DMPC/DMPG large unilamellar vesicles assessed as increase in intrinsic fluorescence in presence of 10 mM Ca2+ by fluorescence based assay
Lipid bilayer [5] = test: Binding affinity to DMPC/DMPG large unilamellar vesicles assessed as increase in intrinsic fluorescence in presence of 1 mM Ca2+ by fluorescence based assay
Lipid bilayer [6] = test: Binding affinity to DMPC/DMPG large unilamellar vesicles assessed as increase in intrinsic fluorescence in presence of >1 mM Ca2+ by fluorescence based assay
Staphylococcus aureus = test: Antibacterial activity against Staphylococcus aureus; type: functional
Lipid bilayer [7] = test: Binding affinity to DMPC/DMPG large unilamellar vesicles assessed as increase in intrinsic fluorescence in presence of >10 mM Ca2+ by fluorescence based assay

| SMILES | Activity (Lipid bilayer [1]) | MIC (Bacillus subtilis [2]) [µg/mL] | MIC (Bacillus subtilis [3]) [µg/mL] | Activity (Lipid bilayer [4]) | Activity (Lipid bilayer [5]) | Activity (Lipid bilayer [6]) | MIC (Staphylococcus aureus) [µg/mL] | Activity (Lipid bilayer [7]) |
| --- | --- | --- | --- | --- | --- | --- | --- | --- |
| CCCCCCCCCC(=O)N[C@@H](Cc1c[nH]c2ccccc12)C(=O)N[C@@H](CC(N)=O)C(=O)N[C@@H](CC(=O)O)C(=O)N[C@@H]1C(=O)NCC(=O)N[C@@H](CCCCN)C(=O)N[C@@H](CC(=O)O)C(=O)N[C@H](C)C(=O)N[C@@H](CC(=O)O)C(=O)NCC(=O)N[C@H](CO)C(=O)N[C@@H](CCC(=O)O)C(=O)N[C@@H](Cc2c[nH]c3ccccc23)C(=O)O[C@@H]1C | Active | 1.5 | 0.5 | – | – | – | – | – |
| CCCCCCCCCC(=O)N[C@H](Cc1c[nH]c2ccccc12)C(=O)N[C@H](CC(N)=O)C(=O)N[C@@H](CC(=O)O)C(=O)N[C@H]1C(=O)NCC(=O)N[C@H](CCCCN)C(=O)N[C@H](CC(=O)O)C(=O)N[C@@H](C)C(=O)N[C@H](CC(=O)O)C(=O)NCC(=O)N[C@@H](CO)C(=O)N[C@H](CCC(=O)O)C(=O)N[C@H](Cc2c[nH]c3ccccc23)C(=O)O[C@H]1C | – | > 200 | 100 | Active | Active | – | – | – |
| CCCCCCCCCC(=O)N[C@@H](Cc1c[nH]c2ccccc12)C(=O)N[C@@H](CC(N)=O)C(=O)N[C@@H](CC(=O)O)C(=O)N[C@@H]1C(=O)NCC(=O)N[C@@H](CCCCN)C(=O)N[C@@H](CC(=O)O)C(=O)N[C@H](C)C(=O)N[C@@H](CC(=O)O)C(=O)NCC(=O)N[C@H](CO)C(=O)N[C@@H](CCC(=O)O)C(=O)N[C@@H](Cc2c[nH]c3ccccc23)C(=O)N[C@@H]1C | – | 50 | 10 | – | – | Active | – | – |
| CCCCCCCCCC(=O)N[C@@H](Cc1c[nH]c2ccccc12)C(=O)N[C@H](CC(N)=O)C(=O)N[C@@H](CC(=O)O)C(=O)N[C@@H]1C(=O)NCC(=O)N[C@@H](CCCN)C(=O)N[C@@H](CC(=O)O)C(=O)N[C@H](C)C(=O)N[C@@H](CC(=O)O)C(=O)NCC(=O)N[C@H](CO)C(=O)N[C@@H]([C@H](C)CC(=O)O)C(=O)N[C@@H](CC(=O)c2ccccc2N)C(=O)O[C@@H]1C | Active | 0.75 | 0.5 | – | – | – | 1.9 (≈ 1.17 µM) | – |
| CCCCCCCCCC(=O)N[C@H](Cc1c[nH]c2ccccc12)C(=O)N[C@H](CC(N)=O)C(=O)N[C@@H](CC(=O)O)C(=O)N[C@H]1CNC(=O)[C@@H](Cc2c[nH]c3ccccc23)NC(=O)[C@@H](CCC(=O)O)NC(=O)[C@H](CO)NC(=O)CNC(=O)[C@@H](CC(=O)O)NC(=O)[C@H](C)NC(=O)[C@@H](CC(=O)O)NC(=O)[C@@H](CCCCN)NC(=O)CNC1=O | – | – | – | – | – | – | 160 (≈ 99.9 µM) | – |
| CCCCCCCCCC(=O)N[C@@H](Cc1c[nH]c2ccccc12)C(=O)N[C@@H](CC(N)=O)C(=O)N[C@@H](CC(=O)O)C(=O)N[C@@H]1C(=O)NCC(=O)N[C@@H](CCCCN)C(=O)N[C@@H](CC(=O)O)C(=O)N[C@H](C)C(=O)N[C@@H](CC(=O)O)C(=O)NCC(=O)N[C@H](CO)C(=O)N[C@@H](CCC(=O)O)C(=O)N[C@@H](Cc2c[nH]c3ccccc23)C(=O)N[C@H]1C | – | > 100 | 10 | – | – | – | – | Active |
